Biological target: T1, p53-Y220C mutant protein (Homo sapiens, UniProt P04637, Y220C)
T1 construct: The recombinant Y220C p53 DBD protein with his-tag
Test: In vitro DNA binding activity assay (TR-FRET)
Type: biochemical
Conditions: concentration required to increase the binding activity of protein to DNA by 50%
Method: The activity of the compound to modulate the binding of the p53-Y220C mutant protein to DNA was detected using TR-FREt (Time-Resolved Fluorescence Resonance Energy Transfer). The recombinant Y220C p53 DBD protein with his-tag and the DNA sequence with biotin label were prepared firstly. Donor Eu(Europium)-SA(Streptavidin) can be bound to the DNA sequence through biotin, receptor for his antibody attached to alphaphycocyanin(APC, allophycocyanin), and his antibody can be bound to the Y220C p53 DBD protein with his-tag. When exposed to an excitation light with a wavelength of 340 nm, the donor Eu(Europium)-SA(Streptavidin) can emit fluorescence with a wavelength of 615 nm. If the donor and the receptor are close to each other, the donor will transfer part of the energy to the receptor and produce fluorescence with a wavelength of 665 nm. […] If there is no interaction, only 615 nm fluorescence is produced. • 1) Experimental steps • a. Adding 4 µL of dilute compound solution to each well of a 384-well microplate; • a. Adding 4 µL of 4X P53 working solution to each well of the 384-well microplate; • c. Sealing the 384-well microplate and equilibrating the system at room temperature for 60 min; • d. Adding 4 µl of biotin DNA solution to the 384-well microplate; • e. Adding 4 µl of 4X test solution (MAb Anti-6His-Eu and streptavidin-d2) to each well of the 384-well microplate; • f. Incubating overnight in the dark; and • g. Reading data of 665 nm and 615 nm wavelengths on the BMG multifunctional microplate reader. • 2) Data analysis • a. Calculating the ratio for each well (Ratio665 nm/615 nm-Ratiobackground); • b. Calculating the activity percentage (%activity) as follows: C = (Ave_Ac−Ave_Ba)/(Ave_Dc−Ave_Bd) [formula] R data = (A−Ave_Ba−CD)/(D−Ave_Bd)*(Ave_Dc−Ave_Bd) [formula] % Activity = R data/Ave_VC*100 [formula] • A: Fluorescence intensity of the sample at 665 nm; D: Fluorescence intensity of the sample at 615 nm; • Ba: Background fluorescence intensity of the culture plate at 665 nm; Bd: Background fluorescence intensity of the culture plate at 615 nm; • Dc: Background fluorescence intensity of HIS-E at 615 nm; Ac: Background fluorescence intensity of streptavidin-d2 at 665 nm); and • c. Calculating SC150 and plotting dose-effect curve
Compared to the absence of the compound of the present invention, the activation percentage of binding of the p53 mutant protein to DNA in the presence of the compound of the present invention is expressed as SC150, which indicates the concentration of the compound required to increase the DNA binding activity of the p53 mutant protein by 50%. The SC150 is calculated using Prism™.

Row | SC150 [nM] | Structure (SMILES)
1 | 50 | CN1CC[C@@H](Nc2cccc3c(CC(F)(F)F)c(C#CCNC(=O)c4nnn(C(C)(C)C)n4)nn23)[C@@H](F)C1 [Compound 145, 2-tert-butyl-N-[3-(7-{[(3S,4R)-3-fluoro-1-methylpiperidin-4-yl]amino}-3-(2,2,2-trifluoroethyl)pyrazolo[1,5-a]pyridin-2-yl)prop-2-yn-1-yl]-2H-tetrazole-5-carboxamide]
2 | 27 | CN1CC[C@@H](Nc2cccc3c(CC(F)(F)F)c(C#CCNC(=O)c4cnn(C(C)(C)C(F)(F)F)c4)nn23)[C@@H](F)C1 [Compound 148, N-[3-(7-{[(3S,4R)-3-fluoro-1-methylpiperidin-4-yl]amino}-3-(2,2,2-trifluoroethyl)pyrazolo[1,5-a]pyridin-2-yl)prop-2-yn-1-yl]-1-(1,1,1-trifluoro-2-methylprop-2-yl)-1H-pyrazole-4-carboxamide]
3 | 84 | Cc1ccc(C(=O)NCC#Cc2nn3c(N[C@@H]4CCN(C)C[C@@H]4F)cccc3c2CC(F)(F)F)cc1 [Compound 160, N-[3-(7-{[(3S,4R)-3-fluoro-1-methylpiperidin-4-yl]amino}-3-(2,2,2-trifluoroethyl)pyrazolo[1,5-a]pyridin-2-yl)prop-2-yn-1-yl]-4-methylbenzamide]
4 | 21 | CN1CC[C@@H](Nc2cccc3c(CC(F)(F)F)c(C#CCNC(=O)c4cnn(C(C)(C)CF)c4)nn23)[C@@H](F)C1 [Compound 234, N-[3-(7-{[(3S,4R)-3-fluoro-1-methylpiperidin-4-yl]amino}-3-(2,2,2-trifluoroethyl)pyrazolo[1,5-a]pyridin-2-yl)prop-2-yn-1-yl]-1-(1-fluoro-2-methylpropan-2-yl)-1H-pyrazole-4-carboxamide]
5 | 75 | CN1CC[C@@H](Nc2cccc3c(CC(F)(F)F)c(C#CCNC(=O)C4C5COCC54)nn23)[C@@H](F)C1 (stereo partly drawn) [Compound 240, N-[3-(7-{[(3S,4R)-3-fluoro-1-methylpiperidin-4-yl]amino}-3-(2,2,2-trifluoroethyl)pyrazolo[1,5-a]pyridin-2-yl)prop-2-yn-1-yl]-3-oxabicyclo[3.1.0]hexane-6-carboxamide]
6 | 82 | CN1CC[C@@H](Nc2cccc3c(CC(F)(F)F)c(C#CCNC(=O)C4CC45CC5)nn23)[C@@H](F)C1 (stereo partly drawn) [Compound 241, N-[3-(7-{[(3S,4R)-3-fluoro-1-methylpiperidin-4-yl]amino}-3-(2,2,2-trifluoroethyl)pyrazolo[1,5-a]pyridin-2-yl)prop-2-yn-1-yl]spiro[2.2]pentane-1-carboxamide]
7 | 14 | CN1CC[C@@H](Nc2cccc3c(CC(F)(F)F)c(C#CCNC(=O)c4cnn(C(C)(C)C#N)c4)nn23)[C@@H](F)C1 [Compound 248, 1-(1-cyano-1-methylethyl)-N-[3-(7-{[(3S,4R)-3-fluoro-1-methylpiperidin-4-yl]amino}-3-(2,2,2-trifluoroethyl)pyrazolo[1,5-a]pyridin-2-yl)prop-2-yn-1-yl]-1H-pyrazole-4-carboxamide]
8 | 17 | CN1CC[C@@H](Nc2cccc3c(CC(F)(F)F)c(C#CCNC(=O)c4cnn(CC#N)c4)nn23)[C@@H](F)C1 [Compound 249, 1-cyanomethyl-N-[3-(7-{[(3S,4R)-3-fluoro-1-methylpiperidin-4-yl]amino}-3-(2,2,2-trifluoroethyl)pyrazolo[1,5-a]pyridin-2-yl)prop-2-yn-1-yl]-1H-pyrazole-4-carboxamide]
9 | 40 | CN1CC[C@@H](Nc2cccc3c(CC(F)(F)F)c(C#CCNC(=O)c4ccc(=O)n(C)c4)nn23)[C@@H](F)C1 [Compound 265, N-[3-(7-{[(3S,4R)-3-fluoro-1-methylpiperidin-4-yl]amino}-3-(2,2,2-trifluoroethyl)pyrazolo[1,5-a]pyridin-2-yl)prop-2-yn-1-yl]-1-methyl-6-oxo-1,6-dihydropyridine-3-carboxamide]
10 | 46 | COc1ccc(C(=O)NCC#Cc2nn3c(N[C@@H]4CCN(C)C[C@@H]4F)cccc3c2CC(F)(F)F)cn1 [Compound 266, N-(3-(7-{[(3S,4R)-3-fluoro-1-methylpiperidin-4-yl]amino}-3-(2,2,2-trifluoroethyl)pyrazolo[1,5-a]pyridin-2-yl)prop-2-yn-1-yl)-6-methoxynicotinamide]
11 | 10 | CN1CC[C@@H](Nc2cccc3c(CC(F)(F)F)c(C#CCNC(=O)c4cnn(CC5CC5)c4)nn23)[C@@H](F)C1 [Compound 268, 1-(cyclopropylmethyl)-N-[3-(7-{[(3S,4R)-3-fluoro-1-methylpiperidin-4-yl]amino}-3-(2,2,2-trifluoroethyl)pyrazolo[1,5-a]pyridin-2-yl)prop-2-yn-1-yl]-1H-pyrazole-4-carboxamide]
12 | 8 | CC(C1CC1)n1cc(C(=O)NCC#Cc2nn3c(N[C@@H]4CCN(C)C[C@@H]4F)cccc3c2CC(F)(F)F)cn1 (stereo partly drawn) [Compound 269, 1-(1-cyclopropylethyl)-N-[3-(7-{[(3S,4R)-3-fluoro-1-methylpiperidin-4-yl]amino}-3-(2,2,2-trifluoroethyl)pyrazolo[1,5-a]pyridin-2-yl)prop-2-yn-1-yl]-1H-pyrazole-4-carboxamide]
13 | 11 | Cc1cc(C(=O)NCC#Cc2nn3c(N[C@@H]4CCN(C)C[C@@H]4F)cccc3c2CC(F)(F)F)cn1C [Compound 273, N-[3-(7-{[(3S,4R)-3-fluoro-1-methylpiperidin-4-yl]amino}-3-(2,2,2-trifluoroethyl)pyrazolo[1,5-a]pyridin-2-yl)prop-2-yn-1-yl]-1,5-dimethyl-1H-pyrrole-3-carboxamide]
14 | 19 | Cc1c(C(=O)NCC#Cc2nn3c(N[C@@H]4CCN(C)C[C@@H]4F)cccc3c2CC(F)(F)F)cnn1C1CC1 [Compound 282, 1-cyclopropyl-N-[3-(7-{[(3S,4R)-3-fluoro-1-methylpiperidin-4-yl]amino}-3-(2,2,2-trifluoroethyl)pyrazolo[1,5-a]pyridin-2-yl)prop-2-yn-1-yl]-5-methyl-1H-pyrazole-4-carboxamide]
15 | 28 | CN1CC[C@@H](Nc2cccc3c(CC(F)(F)F)c(C#CCNC(=O)c4cnn(CC5CCCC5)c4N)nn23)[C@@H](F)C1 [Compound 285]
16 | 8 | CC(C)Cn1ncc(C(=O)NCC#Cc2nn3c(N[C@@H]4CCN(C)C[C@@H]4F)cccc3c2CC(F)(F)F)c1N [Compound 286, 5-amino-N-[3-(7-{[(3S,4R)-3-fluoro-1-methylpiperidin-4-yl]amino}-3-(2,2,2-trifluoroethyl)pyrazolo[1,5-a]pyridin-2-yl)prop-2-yn-1-yl]-1-isobutyl-1H-pyrazole-4-carboxamide]
17 | 23 | CN1CC[C@@H](Nc2cccc3c(CC(F)(F)F)c(C#CCNC(=O)c4cnn(CC(C)(C)C)c4N)nn23)[C@@H](F)C1 [Compound 287]
18 | 69 | Cc1nn(C(C)(C)C)c(N)c1C(=O)NCC#Cc1nn2c(N[C@@H]3CCN(C)C[C@@H]3F)cccc2c1CC(F)(F)F [Compound 288, 5-amino-1-tert-butyl-N-[3-(7-{[(3S,4R)-3-fluoro-1-methylpiperidin-4-yl]amino}-3-(2,2,2-trifluoroethyl)pyrazolo[1,5-a]pyridin-2-yl)prop-2-yn-1-yl]-3-methyl-1H-pyrazole-4-carboxamide]
19 | 39 | Cc1cc(N)c(C(=O)NCC#Cc2nn3c(N[C@@H]4CCN(C)C[C@@H]4F)cccc3c2CC(F)(F)F)cn1 [Compound 294, 4-amino-N-[3-(7-{[(3S,4R)-3-fluoro-1-methylpiperidin-4-yl]amino}-3-(2,2,2-trifluoroethyl)pyrazolo[1,5-a]pyridin-2-yl)prop-2-yn-1-yl]-6-methylnicotinamide]

Source: patent EP4737449A1 (Changchun Genescience Pharmaceutical Co., Ltd., priority 2023, dated 2025)
